Values of other authors, collected in patent publication US20050226814A1, “Diagnostic method and kit for implantation of a sustained release drug-delivery implant with a steroid” (Bausch & Lomb Incorporated, priority 2004, published 2005).

What was measured:
[1] = test system: proliferative vitreoretinopathy; conditions: injected into the sub-conjuctival area
[2] = test system: retinochoroid disorders; conditions: injection into the eye of a patient

For `C[C@]12CCC(=O)C=C1CC[C@@H]1[C@@H]2[C@@H](O)C[C@@]2(C)[C@H]1CC[C@]2(O)C(=O)CO` [hydrocortisone], the “effect on proliferative vitreoretinopathy” value [1] is listed as “inhibited proliferative vitreoretinopathy”.
For `C[C@]12C=CC(=O)C=C1CC[C@H]1[C@@H]3C[C@@H](O)[C@](O)(C(=O)CO)[C@@]3(C)C[C@H](O)[C@@]12F` [trimacinolone, triamcinolone], the long-term effect [2] is given as “did not have a significantly long-term effect”.
